Results taken from the NIST ThermoML archive (doi:10.1016/j.jct.2005.12.005).

Columns and labels:
[1] = xn = mol fraction of the nth substance listed; details: 101 kPa, Liquid; for speed of sound: Sing-around technique in a fixed-path interferometer
[2] = refractive index (Na D-line) (dimensionless); xn = mol fraction of the nth substance listed; details: 101 kPa, Liquid

CC1CCCCC1 [methylcyclohexane] + COc1ccccc1
x1 = 1
Details	mass density, 298.15 K [kg/m3]	mass density, 303.15 K [kg/m3]	mass density, 308.15 K [kg/m3]	refractive index, 298.15 K	refractive index, 303.15 K	refractive index, 308.15 K	speed of sound, 298.15 K [m/s]	viscosity, 298.15 K [mPa·s]	viscosity, 303.15 K [mPa·s]	viscosity, 308.15 K [mPa·s]
[1]	765	760.7	756.3	–	–	–	1217	0.676	0.631	0.59
[2]	–	–	–	1.4217	1.4192	1.4163	–	–	–	–

CC1CCCCC1 [methylcyclohexane] + c1ccccc1
Details	mass density, 298.15 K [kg/m3]	mass density, 303.15 K [kg/m3]	mass density, 308.15 K [kg/m3]	refractive index, 298.15 K	refractive index, 303.15 K	refractive index, 308.15 K	speed of sound, 298.15 K [m/s]	viscosity, 298.15 K [mPa·s]	viscosity, 303.15 K [mPa·s]	viscosity, 308.15 K [mPa·s]
[1], x1 = 0.104	855.9	850.7	845.5	–	–	–	1293	0.584	0.546	0.509
[1], x1 = 0.2045	840.8	835.8	830.7	–	–	–	1284	0.566	0.53	0.494
[1], x1 = 0.302	827.6	822.7	817.8	–	–	–	1276	0.561	0.527	0.492
[1], x1 = 0.4006	815.8	811	806.2	–	–	–	1267	0.556	0.523	0.49
[1], x1 = 0.5007	805	800.3	795.6	–	–	–	1259	0.559	0.527	0.496
[1], x1 = 0.6004	795.3	790.6	786	–	–	–	1250	0.571	0.537	0.504
[1], x1 = 0.7056	785.9	781.4	776.8	–	–	–	1242	0.597	0.564	0.531
[1], x1 = 0.8033	778.5	774	769.5	–	–	–	1234	0.617	0.583	0.549
[1], x1 = 0.8982	771.4	767	762.6	–	–	–	1225	0.647	0.607	0.567
[1], x1 = 1	765	760.7	756.3	–	–	–	1217	0.676	0.631	0.59
[2], x1 = 0.104	–	–	–	1.484	1.481	1.4779	–	–	–	–
[2], x1 = 0.2045	–	–	–	1.4728	1.4702	1.4675	–	–	–	–
[2], x1 = 0.302	–	–	–	1.4628	1.4604	1.458	–	–	–	–
[2], x1 = 0.4006	–	–	–	1.455	1.4524	1.4499	–	–	–	–
[2], x1 = 0.5007	–	–	–	1.4475	1.4448	1.4422	–	–	–	–
[2], x1 = 0.6004	–	–	–	1.441	1.4384	1.4357	–	–	–	–
[2], x1 = 0.7056	–	–	–	1.4341	1.4316	1.4292	–	–	–	–
[2], x1 = 0.8033	–	–	–	1.429	1.4262	1.4235	–	–	–	–
[2], x1 = 0.8982	–	–	–	1.4245	1.4219	1.4192	–	–	–	–
[2], x1 = 1	–	–	–	1.4217	1.4192	1.4163	–	–	–	–

Cc1ccc(C)cc1 [1,4-dimethylbenzene] + CC1CCCCC1
x2 = 0
Details	mass density, 298.15 K [kg/m3]	mass density, 303.15 K [kg/m3]	mass density, 308.15 K [kg/m3]	refractive index, 298.15 K	refractive index, 303.15 K	refractive index, 308.15 K	speed of sound, 298.15 K [m/s]	viscosity, 298.15 K [mPa·s]	viscosity, 303.15 K [mPa·s]	viscosity, 308.15 K [mPa·s]
[1]	856.7	852.3	848	–	–	–	1326	0.611	0.572	0.54
[2]	–	–	–	1.4926	1.4893	1.4867	–	–	–	–

CC1CCCCC1 [methylcyclohexane] + Cc1ccccc1
Details	mass density, 298.15 K [kg/m3]	mass density, 303.15 K [kg/m3]	mass density, 308.15 K [kg/m3]	refractive index, 298.15 K	refractive index, 303.15 K	refractive index, 308.15 K	speed of sound, 298.15 K [m/s]	viscosity, 298.15 K [mPa·s]	viscosity, 303.15 K [mPa·s]	viscosity, 308.15 K [mPa·s]
[1], x1 = 0.1027	849.5	844.9	840.3	–	–	–	1304	0.551	0.52	0.49
[1], x1 = 0.205	837.5	832.9	828.3	–	–	–	1295	0.547	0.518	0.489
[1], x1 = 0.3034	826.6	822	817.5	–	–	–	1285	0.548	0.517	0.487
[1], x1 = 0.4043	816	811.5	807	–	–	–	1275	0.556	0.523	0.491
[1], x1 = 0.5031	806.3	801.8	797.3	–	–	–	1266	0.564	0.532	0.5
[1], x1 = 0.5988	797.3	792.8	788.4	–	–	–	1256	0.577	0.544	0.51
[1], x1 = 0.7061	787.8	783.4	779	–	–	–	1246	0.592	0.558	0.524
[1], x1 = 0.8005	780	775.6	771.2	–	–	–	1237	0.614	0.577	0.54
[1], x1 = 0.8984	772.4	768	763.7	–	–	–	1227	0.643	0.603	0.563
[1], x1 = 1	765	760.7	756.3	–	–	–	1217	0.676	0.631	0.59
[2], x1 = 0.1027	–	–	–	1.4838	1.4811	1.4783	–	–	–	–
[2], x1 = 0.205	–	–	–	1.475	1.4723	1.4696	–	–	–	–
[2], x1 = 0.3034	–	–	–	1.4666	1.4641	1.4615	–	–	–	–
[2], x1 = 0.4043	–	–	–	1.4586	1.4561	1.4537	–	–	–	–
[2], x1 = 0.5031	–	–	–	1.4511	1.4486	1.4461	–	–	–	–
[2], x1 = 0.5988	–	–	–	1.4443	1.4418	1.4392	–	–	–	–
[2], x1 = 0.7061	–	–	–	1.4373	1.4347	1.4321	–	–	–	–
[2], x1 = 0.8005	–	–	–	1.4315	1.4289	1.4263	–	–	–	–
[2], x1 = 0.8984	–	–	–	1.4261	1.4234	1.4208	–	–	–	–
[2], x1 = 1	–	–	–	1.4217	1.4192	1.4163	–	–	–	–
